# In ChEMBL document CHEMBL1157703, “Synthesis, pharmacological studies and molecular modeling of some tetracyclic 1,3-diazepinium chlorides” (Bioorg Med Chem, 2010):
# The source made the active and inactive calls. The calls are words filed in the database; no cut-off is given here.
# Tests used:
# [1] = biological target: Sodium-dependent serotonin transporter (Homo sapiens) (UniProt P31645); test: Inhibition of SERT PDSP analysis; parameters: scale not given: the % may be the effect or the level left
# Mus musculus [2] = test: CNS toxicity in Albino mouse assessed as anesthetic response at 0.2 ml/10 g by hippocratic screen; type: organism-based; details: in vivo
# Mus musculus [3] = species: Mus musculus; test: CNS toxicity in Albino mouse assessed as loss of analgesic activity at 0.2 ml/10 g by hippocratic screen; type: organism-based; details: in vivo
# Mus musculus [4] = species: Mus musculus; test: CNS toxicity in Albino mouse assessed as ataxia at 0.2 ml/10 g by hippocratic screen; type: organism-based; details: in vivo
# Mus musculus [5] = species: Mus musculus; test: CNS toxicity in Albino mouse assessed as paralysis at 0.2 ml/10 g by hippocratic screen; type: organism-based; details: in vivo
# Mus musculus [6] = species: Mus musculus; test: Effect on behavioral activity in Albino mouse assessed as inhibition of diazepam-induced pinnal reflex at 0.2 ml/10 g by hippocratic screen; type: functional, organism-based
# Mus musculus [7] = species: Mus musculus; test: Effect on behavioral activity in Albino mouse assessed as inhibition of diazepam-induced paralysis at 0.2 ml/10 g by hippocratic screen; type: functional, organism-based
# Mus musculus [8] = species: Mus musculus; test: CNS toxicity in Albino mouse assessed as change in respiratory rate at 0.2 ml/10 g by hippocratic screen; type: organism-based; details: in vivo
# Mus musculus [9] = species: Mus musculus; test: Effect on behavioral activity in Albino mouse assessed as inhibition of diazepam-induced startle reaction at 0.2 ml/10 g by hippocratic screen; type: functional, organism-based
# Mus musculus [10] = species: Mus musculus; test: Effect on behavioral activity in Albino mouse assessed as inhibition of diazepam-induced tremors at 0.2 ml/10 g by hippocratic screen; type: functional, organism-based
# Mus musculus [11] = species: Mus musculus; test: Effect on behavioral activity in Albino mouse assessed as inhibition of diazepam-induced anesthesia at 0.2 ml/10 g by hippocratic screen; type: functional, organism-based
# Mus musculus [12] = species: Mus musculus; test: Effect on behavioral activity in Albino mouse assessed as inhibition of diazepam-induced decrease in respiratory rate at 0.2 ml/10 g by hippocratic screen; type: functional, organism-based
# Mus musculus [13] = species: Mus musculus; test: Effect on behavioral activity in Albino mouse assessed as inhibition of diazepam-induced loss of analgesia at 0.2 ml/10 g by hippocratic screen; type: functional, organism-based
# Mus musculus [14] = species: Mus musculus; test: CNS toxicity in Albino mouse assessed as loss of righting reflex at 0.2 ml/10 g by hippocratic screen; type: organism-based; details: in vivo
# Mus musculus [15] = species: Mus musculus; test: CNS toxicity in Albino mouse assessed as startle reaction at 0.2 ml/10 g by hippocratic screen; type: organism-based; details: in vivo
# Mus musculus [16] = species: Mus musculus; test: Effect on behavioral activity in Albino mouse assessed as inhibition of diazepam-induced ataxia at 0.2 ml/10 g after 5 mins by hippocratic screen; type: functional, organism-based
# Mus musculus [17] = species: Mus musculus; test: CNS toxicity in Albino mouse assessed as pinnal reflex at 0.2 ml/10 g by hippocratic screen; type: organism-based; details: in vivo
# Mus musculus [18] = species: Mus musculus; test: CNS toxicity in Albino mouse assessed as tremors at 0.2 ml/10 g by hippocratic screen; type: organism-based; details: in vivo
# Mus musculus [19] = species: Mus musculus; test: Effect on behavioral activity in Albino mouse assessed as inhibition of diazepam-induced loss of screen grip at 0.2 ml/10 g by hippocratic screen; type: functional, organism-based
# Mus musculus [20] = species: Mus musculus; test: CNS toxicity in Albino mouse assessed as loss of screen grip at 0.2 ml/10 g by hippocratic screen; type: organism-based; details: in vivo
# Mus musculus [21] = species: Mus musculus; test: Effect on behavioral activity in Albino mouse assessed as inhibition of diazepam-induced loss of righting reflex at 0.2 ml/10 g after 2 hrs by hippocratic screen; type: functional, organism-based
# Mus musculus [22] = species: Mus musculus; test: Effect on behavioral activity in Albino mouse assessed as inhibition of diazepam-induced decrease in motor activity at 0.2 ml/10 g for 10 to 15 mins by hippocratic screen; type: functional, organism-based
# [23] = biological target: T1, GABA-A receptor; alpha-1/beta-2/gamma-2 (Homo sapiens, UniProt P14867+P18507+P47870); test: Displacement of [3H]flunitrezepam from GABA-A alpha-1-beta-2-gamma-2 receptor by liquid scintillation counting; type: protein-complex assay
# T1 sequence (P14867 whole entry): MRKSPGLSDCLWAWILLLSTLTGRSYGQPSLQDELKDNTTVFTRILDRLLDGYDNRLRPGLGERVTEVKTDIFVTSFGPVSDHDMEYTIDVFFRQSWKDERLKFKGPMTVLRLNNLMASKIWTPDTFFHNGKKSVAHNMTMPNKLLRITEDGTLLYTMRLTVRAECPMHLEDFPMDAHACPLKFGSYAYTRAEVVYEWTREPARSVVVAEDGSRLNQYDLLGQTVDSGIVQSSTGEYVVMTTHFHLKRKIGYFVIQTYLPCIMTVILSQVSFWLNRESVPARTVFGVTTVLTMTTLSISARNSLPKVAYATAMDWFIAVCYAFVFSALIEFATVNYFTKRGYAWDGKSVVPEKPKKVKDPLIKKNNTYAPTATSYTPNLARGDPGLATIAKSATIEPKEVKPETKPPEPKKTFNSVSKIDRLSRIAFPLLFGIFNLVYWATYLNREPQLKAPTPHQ
# T1 sequence (P47870 whole entry): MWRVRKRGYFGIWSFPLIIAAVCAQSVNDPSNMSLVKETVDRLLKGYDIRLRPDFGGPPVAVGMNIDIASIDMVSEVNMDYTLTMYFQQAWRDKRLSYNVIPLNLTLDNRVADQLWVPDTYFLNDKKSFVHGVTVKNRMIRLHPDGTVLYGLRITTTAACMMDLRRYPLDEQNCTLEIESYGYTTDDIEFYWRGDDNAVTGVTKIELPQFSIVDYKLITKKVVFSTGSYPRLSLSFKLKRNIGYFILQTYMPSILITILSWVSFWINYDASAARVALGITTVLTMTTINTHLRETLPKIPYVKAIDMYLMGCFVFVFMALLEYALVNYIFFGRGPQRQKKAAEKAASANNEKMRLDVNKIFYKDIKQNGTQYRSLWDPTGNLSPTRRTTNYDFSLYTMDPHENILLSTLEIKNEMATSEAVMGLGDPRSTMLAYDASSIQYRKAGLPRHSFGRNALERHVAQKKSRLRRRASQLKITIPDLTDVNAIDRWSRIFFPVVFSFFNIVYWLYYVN
# T1 sequence (P18507 whole entry): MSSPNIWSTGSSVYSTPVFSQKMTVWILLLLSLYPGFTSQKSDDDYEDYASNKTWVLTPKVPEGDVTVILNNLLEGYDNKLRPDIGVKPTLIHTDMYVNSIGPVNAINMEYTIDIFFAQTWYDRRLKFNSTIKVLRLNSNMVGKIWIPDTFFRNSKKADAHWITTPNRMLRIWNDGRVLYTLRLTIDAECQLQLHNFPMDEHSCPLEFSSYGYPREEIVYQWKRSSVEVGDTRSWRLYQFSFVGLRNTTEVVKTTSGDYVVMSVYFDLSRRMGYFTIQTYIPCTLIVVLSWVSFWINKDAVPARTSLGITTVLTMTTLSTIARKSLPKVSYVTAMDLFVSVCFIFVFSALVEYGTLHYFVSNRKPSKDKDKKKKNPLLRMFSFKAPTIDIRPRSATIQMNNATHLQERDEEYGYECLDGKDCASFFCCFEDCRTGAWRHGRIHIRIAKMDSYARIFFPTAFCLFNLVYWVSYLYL
# [24] = biological target: T2, GABA A receptor alpha-3/beta-2/gamma-2 (Homo sapiens, UniProt P18507+P34903+P47870); test: Displacement of [3H]flunitrezepam from GABAA alpha-3-beta-2-gamma-2 receptor by liquid scintillation counting; type: protein-complex assay
# T2 sequence (P47870 whole entry): T1 sequence (P47870 whole entry)
# T2 sequence (P18507 whole entry): T1 sequence (P18507 whole entry)
# T2 sequence (P34903 whole entry): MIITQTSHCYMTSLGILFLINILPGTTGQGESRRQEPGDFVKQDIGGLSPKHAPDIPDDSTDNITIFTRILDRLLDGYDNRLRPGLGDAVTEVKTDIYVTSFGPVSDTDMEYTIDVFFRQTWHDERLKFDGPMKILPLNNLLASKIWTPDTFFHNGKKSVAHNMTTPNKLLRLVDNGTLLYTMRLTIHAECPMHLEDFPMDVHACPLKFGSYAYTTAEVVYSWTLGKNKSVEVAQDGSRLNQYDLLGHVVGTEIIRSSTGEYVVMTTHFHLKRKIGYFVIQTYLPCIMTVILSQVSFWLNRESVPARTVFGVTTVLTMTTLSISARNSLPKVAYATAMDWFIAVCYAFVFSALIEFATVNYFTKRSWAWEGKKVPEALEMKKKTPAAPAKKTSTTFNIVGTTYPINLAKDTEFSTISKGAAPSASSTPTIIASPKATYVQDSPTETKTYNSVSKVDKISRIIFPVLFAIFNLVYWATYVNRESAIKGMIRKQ
# Mus musculus [25] = species: Mus musculus; test: CNS toxicity in Albino mouse assessed as decrease in motor activity at 0.2 ml/10 g by hippocratic screen; type: organism-based; details: in vivo
# [26] = biological target: T3, Gamma-aminobutyric acid receptor subunit alpha-5 (Homo sapiens, UniProt P18507+P31644+P47870); test: Displacement of [3H]flunitrezepam from GABAA alpha-5-beta-2-gamma-2 receptor by liquid scintillation counting
# T3 sequence (P31644 whole entry): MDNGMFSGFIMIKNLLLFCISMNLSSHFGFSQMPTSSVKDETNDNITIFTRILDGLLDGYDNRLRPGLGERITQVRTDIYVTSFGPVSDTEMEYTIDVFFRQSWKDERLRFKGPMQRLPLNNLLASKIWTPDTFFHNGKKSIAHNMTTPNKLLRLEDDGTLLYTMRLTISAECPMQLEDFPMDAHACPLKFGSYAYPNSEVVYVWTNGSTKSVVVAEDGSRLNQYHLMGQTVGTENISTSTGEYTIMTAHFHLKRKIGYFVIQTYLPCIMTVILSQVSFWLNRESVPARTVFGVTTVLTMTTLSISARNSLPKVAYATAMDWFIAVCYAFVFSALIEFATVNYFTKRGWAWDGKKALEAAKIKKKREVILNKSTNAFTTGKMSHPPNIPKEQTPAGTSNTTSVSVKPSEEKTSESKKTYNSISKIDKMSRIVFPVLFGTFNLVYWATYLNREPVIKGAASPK
# [27] = biological target: T4, GABA A receptor alpha-2/beta-2/gamma-2 (Homo sapiens, UniProt P18507+P47869+P47870); test: Displacement of [3H]flunitrezepam from GABA-A alpha-2-beta-2-gamma-2 receptor by liquid scintillation counting; type: protein-complex assay
# T4 sequence (P47870 whole entry): T1 sequence (P47870 whole entry)
# T4 sequence (P18507 whole entry): T1 sequence (P18507 whole entry)
# T4 sequence (P47869 whole entry): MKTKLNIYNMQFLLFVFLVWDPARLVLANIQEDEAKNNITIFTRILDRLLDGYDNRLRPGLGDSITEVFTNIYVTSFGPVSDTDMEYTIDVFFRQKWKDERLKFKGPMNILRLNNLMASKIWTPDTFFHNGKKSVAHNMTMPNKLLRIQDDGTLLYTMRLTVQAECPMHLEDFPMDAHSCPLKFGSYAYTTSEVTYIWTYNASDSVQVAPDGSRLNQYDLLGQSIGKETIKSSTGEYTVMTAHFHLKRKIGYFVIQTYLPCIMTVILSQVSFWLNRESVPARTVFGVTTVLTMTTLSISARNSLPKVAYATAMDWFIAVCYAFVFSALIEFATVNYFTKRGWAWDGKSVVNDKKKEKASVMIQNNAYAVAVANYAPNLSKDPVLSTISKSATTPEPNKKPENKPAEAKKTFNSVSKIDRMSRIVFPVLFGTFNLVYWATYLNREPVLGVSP
# [28] = biological target: Sodium-dependent noradrenaline transporter (Homo sapiens) (UniProt P23975); test: Inhibition of NET PDSP analysis
# Chain of Sodium-dependent noradrenaline transporter (Homo sapiens) (P23975 whole entry): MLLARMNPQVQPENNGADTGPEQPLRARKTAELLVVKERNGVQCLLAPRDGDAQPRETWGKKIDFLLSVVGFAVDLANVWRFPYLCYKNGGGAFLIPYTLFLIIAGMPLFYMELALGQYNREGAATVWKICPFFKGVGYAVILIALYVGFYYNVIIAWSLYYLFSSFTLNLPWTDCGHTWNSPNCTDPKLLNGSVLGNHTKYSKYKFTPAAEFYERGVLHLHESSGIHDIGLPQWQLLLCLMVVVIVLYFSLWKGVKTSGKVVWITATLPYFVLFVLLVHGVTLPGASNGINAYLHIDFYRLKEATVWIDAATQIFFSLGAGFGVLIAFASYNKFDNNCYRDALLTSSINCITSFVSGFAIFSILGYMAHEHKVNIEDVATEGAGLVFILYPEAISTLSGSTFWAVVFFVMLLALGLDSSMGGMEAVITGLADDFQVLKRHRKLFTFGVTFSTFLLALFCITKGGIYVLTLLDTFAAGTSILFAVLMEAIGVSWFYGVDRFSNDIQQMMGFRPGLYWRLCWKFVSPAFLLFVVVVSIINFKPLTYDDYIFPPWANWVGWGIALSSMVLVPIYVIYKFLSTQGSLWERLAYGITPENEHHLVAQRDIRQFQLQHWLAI
# Chain of Sodium-dependent serotonin transporter (Homo sapiens) (P31645 whole entry, looked up): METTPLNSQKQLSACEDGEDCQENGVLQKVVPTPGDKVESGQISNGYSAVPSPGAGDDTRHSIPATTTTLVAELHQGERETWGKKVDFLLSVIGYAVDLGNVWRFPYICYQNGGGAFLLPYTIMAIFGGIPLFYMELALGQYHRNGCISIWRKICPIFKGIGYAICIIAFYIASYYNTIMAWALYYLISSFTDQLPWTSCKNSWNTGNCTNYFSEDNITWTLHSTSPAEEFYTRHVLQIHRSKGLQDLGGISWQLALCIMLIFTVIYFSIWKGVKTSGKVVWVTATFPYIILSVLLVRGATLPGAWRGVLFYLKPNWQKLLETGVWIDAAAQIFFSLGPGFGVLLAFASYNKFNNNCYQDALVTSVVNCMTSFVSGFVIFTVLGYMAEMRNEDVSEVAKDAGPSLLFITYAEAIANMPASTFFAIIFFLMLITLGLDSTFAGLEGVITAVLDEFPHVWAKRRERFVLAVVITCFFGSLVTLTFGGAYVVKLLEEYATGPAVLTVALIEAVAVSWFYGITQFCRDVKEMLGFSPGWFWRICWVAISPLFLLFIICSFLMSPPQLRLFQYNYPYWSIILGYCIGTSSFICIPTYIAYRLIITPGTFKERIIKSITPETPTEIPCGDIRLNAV
smiles,measurement,setting,value
NCCc1c[nH]c2ccc(O)cc12,Activity,[1],> 10000%
COc1ccc2c3c(oc2c1)C(=O)Nc1cccc[n+]1C3.[Cl-],Activity,Mus musculus [2],Non-toxic
same,Activity,Mus musculus [3],Non-toxic
same,Activity,Mus musculus [4],Non-toxic
same,Activity,Mus musculus [5],Non-toxic
same,Activity,Mus musculus [6],Active
same,Activity,Mus musculus [7],inactive
same,Activity,Mus musculus [8],Non-toxic
same,Activity,Mus musculus [9],inactive
same,Activity,Mus musculus [10],inactive
same,Activity,Mus musculus [11],inactive
same,Activity,Mus musculus [12],inactive
same,Activity,Mus musculus [13],inactive
same,Activity,Mus musculus [14],Non-toxic
same,Activity,Mus musculus [15],Non-toxic
same,Activity,Mus musculus [16],inactive
same,Activity,Mus musculus [17],Non-toxic
same,Activity,Mus musculus [18],Non-toxic
same,Activity,Mus musculus [19],inactive
same,Activity,Mus musculus [20],Non-toxic
same,Activity,Mus musculus [21],inactive
same,Activity,Mus musculus [22],Active
same,Ki,[23],746 nM
same,Ki,[24],1540 nM
same,Activity,Mus musculus [25],Non-toxic
same,Ki,[26],2360 nM
same,Ki,[27],8080 nM
NC[C@H](O)c1ccc(O)c(O)c1,Ki,[28],> 10000 nM
